According to PMC10073126, “Levosimendan inhibits disulfide tau oligomerization and ameliorates tau pathology in Tau^P301L-BiFC mice” (Experimental & Molecular Medicine, 2023):

Assays:
Tau^P301L-BiFC mice [1] = assay: Tau immunoblot of RIPA-soluble and RIPA-insoluble brain lysates; assay type: in vivo, mouse; conditions: 5 mg/kg i.p., 4 months; for Level of disulfide-linked tau oligomers in the brain (nonreducing SDS-PAGE): RIPA-soluble brain lysates
Experimental: Band intensity was quantified using ImageJ software (NIH). All data were normalized to β-actin.
(§1) For drug administration, LMTM and levosimendan were dissolved in PBS containing 40% polyethylene glycol (PEG; Sigma). Nine-month-old Tau^P301L-BiFC mice were intraperitoneally administered each drug for 4 months, three times a week, at a dosage of 5 mg/kg (n = 11 per group). Vehicle-treated Tau^P301L-BiFC mice and age-matched wild-type mice were used as control groups. Behavioral assessments were conducted as described below for one month from the end of drug administration. All mice were sacrificed at the age of 14 months for pathological analysis.
Brains were weighed and suspended in RIPA lysis buffer (Sigma) containing protease and phosphatase inhibitor cocktails. Then, tissues were mechanically disrupted using a cordless mortar and pestle (Sigma) and incubated at 4 °C for 2 h with shaking. The homogenates were centrifuged at 20,000 × g at 4 °C for 20 min. The supernatants were collected as RIPA-soluble fractions and stored at −80 °C. To prepare RIPA-insoluble fractions, the remaining pellets were washed once with RIPA lysis buffer containing 1 M sucrose, resuspended in 2% SDS solution (1 mL per gram of tissue) and incubated at RT for 1 h. The mixtures were centrifuged at 20,000 × g for 1 min at RT. The supernatant was collected as RIPA-insoluble fractions and preserved at −80 °C.

Tau^P301L-BiFC mice [2] = assay: BiFC fluorescence imaging of brain tissue sections; assay type: in vivo, mouse; conditions: 5 mg/kg i.p., 4 months; for Tau-BiFC intensity in the hippocampus compared to vehicle-treated group: hippocampal CA1; for Tau-BiFC intensity in the cortex compared to vehicle-treated group: somatosensory cortex layer V
Experimental: as §1
Brain tissue sections (n = 8 per group) were mounted onto slides. To reduce autofluorescence, brain tissue sections were stained with Sudan Black B solution (70% ethanol containing 0.05% Sudan Black B) for 10 min, washed three times with PBS containing 0.1% Triton X-100 (Sigma), and then washed with distilled water. For counterstaining of nuclei, brain tissues were stained with Hoechst (0.5 μg/mL) for 30 min. BiFC fluorescence (λex = 460–490 nm and λem = 500–550 nm) images were acquired using Axio Scan. Z1 (ZEISS). For quantitative analysis, the mean BiFC fluorescence intensity was measured in the somatosensory cortex (layer V) and hippocampal CA1 from AP;−1.82. To normalize the background fluorescence between the brain samples, the habenular region was used as an internal control. Using ImageJ software (NIH), the region of interest was masked, and the fluorescence intensity value was calculated. Data are shown as the average and standard deviation of the mean fluorescence intensities of brain images from six to eight animals.

[3] = test system: primary hippocampal neurons; assay: NeuO staining, number of neurons and neurite lengths; assay type: cell-based; conditions: for Number of NeuO-stained live neurons / Neurite length: tauK18^P301L, 48 h; for Number of NeuO-stained live neurons: basal 1925 ± 66, control 943 ± 30; for Neurite length: control 142.8 ± 17.8 μm
Experimental: Primary hippocampal neurons were isolated from Day 18 embryonic Sprague‒Dawley rat brains as described previously. The neurons were seeded at a density of 3.5 × 10^5 cells per well on a poly-D-lysine-coated 6-well plate and maintained in neurobasal medium at 37 °C in a humidified atmosphere of 5% CO2. The neurobasal medium contained 2% B27 supplement, 0.5 mM GlutaMAX, 100 units/mL penicillin, and 100 μg/mL streptomycin. Every 3 days, 50% of the medium was replaced with fresh neurobasal medium. At DIV10, neurons were incubated with MB, LMTM (3 µM), or levosimendan (10 µM) in the presence of tauK18^P301L (10 µg/mL) for 48 h.
At DIV10, neurons grown on a 96-well plate were treated with MB, LMTM (3 µM), or levosimendan (10 µM) followed by tauK18^P301L activation. After 48 h, the neurons were stained with NueO (50 nM), a neuron-selective probe. NeuO fluorescence (λex = 460–490 nm and λem = 518–580 nm) images were acquired by using Operetta® (PerkinElmer). The number of neurons and total lengths of neurites were quantified by Harmony 3.1 software (PerkinElmer). Error bars represent the standard deviations (S.D.) of four replicate experiments.

Tau-BiFC cells = assay: Flow cytometry analysis of tau-BiFC cells; assay type: cell-based, human; conditions: for P1: intact cell population out of total cells: 24 h; for Median BiFC fluorescence intensity of BiFC-responding cells: BiFC^ON control […] ± 62, basal 332 ± 110
Experimental: After 24 h, BiFC cells were collected and subjected to flow cytometry analysis using a BD FACSLyric^TM cytometer (BD Biosciences). A total of 50,000 events were acquired per sample. All samples were gated using the same gating tree and gate positions: side scatter area (SSC-A) vs. forward scatter area (FSC-A) for viable and singlet cell populations. BiFC fluorescence was excited by a 488 nm wave laser and collected through a 527/32 bandpass filter.

tauK18 = target: T1, tauK18 (Homo sapiens, UniProt P10636); assay: In vitro tau aggregation assay (thioflavin S); assay type: biochemical; conditions: 5 days; for EC50: tauK18 with heparin and DTT, read-out: EC50, inhibition of tau aggregation (ThS)
T1 construct: under in vitro conditions using a purified tauK18 fragment; 6xHis; made in house; host or cells: E. coli BL21 (DE3)
T1 sequence (P10636 561-685 limits assumed): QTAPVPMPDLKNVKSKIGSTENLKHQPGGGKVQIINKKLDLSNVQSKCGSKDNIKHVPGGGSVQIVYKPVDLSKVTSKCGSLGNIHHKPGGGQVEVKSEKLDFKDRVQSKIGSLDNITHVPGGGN
Experimental: To evaluate the inhibitory effect of drugs on tau aggregation, tauK18 protein (0.5 mg/mL) was incubated with each drug at various concentrations in the presence of DTT (100 μM) and heparin (0.1 mg/mL) at 37 °C for 5 days with vigorous shaking (220 rpm). For the tau disaggregation assay, the preformed aggregation mixture of tauK18 was incubated with each drug at 37 °C for 4 days with vigorous shaking (220 rpm). On the final day of incubation, the level of β-sheet aggregates was evaluated by thioflavin S (ThS) assay. For the ThS assay, 5 μL of each mixture was transferred to a black 384-well plate with 45 μL of PBS containing 10 μM ThS. ThS fluorescence (λex = 430 nm, and λem = 500 nm) was measured by using a Flexstation2 spectrophotometer (Molecular Devices).

tau [4] = target: T2, tau (Homo sapiens, UniProt P10636); assay: Tau-BiFC response in tau-BiFC cells (high-content imaging); assay type: cell-based; parameters: expressed in transfected cells; host or cells: HEK293 Tau-BiFC cells (G418-selected); conditions: 48 h of treatment
T2 sequence (P10636 1-441 isoform P10636-8): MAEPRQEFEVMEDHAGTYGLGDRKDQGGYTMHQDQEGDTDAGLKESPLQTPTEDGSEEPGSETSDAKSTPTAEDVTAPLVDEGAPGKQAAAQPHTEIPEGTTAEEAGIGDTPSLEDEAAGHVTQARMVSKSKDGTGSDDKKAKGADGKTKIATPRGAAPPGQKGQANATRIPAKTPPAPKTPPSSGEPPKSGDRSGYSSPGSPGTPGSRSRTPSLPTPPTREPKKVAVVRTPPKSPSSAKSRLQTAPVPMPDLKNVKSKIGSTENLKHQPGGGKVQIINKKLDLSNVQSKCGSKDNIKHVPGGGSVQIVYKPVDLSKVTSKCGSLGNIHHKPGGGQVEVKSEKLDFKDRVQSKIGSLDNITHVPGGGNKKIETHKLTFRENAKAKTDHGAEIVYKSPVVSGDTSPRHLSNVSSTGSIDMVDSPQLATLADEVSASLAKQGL
T2 sequence (P10636 1-441 isoform P10636-8): as above

tau [5] = target: T2, tau; assay: Tau immunoblot of tau-BiFC cell lysates (reducing and nonreducing SDS-PAGE); conditions: tauK18^P301L-activated tau-BiFC cells; for Level of disulfide-linked tau oligomers compared to basal: nonreducing SDS-PAGE, control 2.4 ± 0.4-fold
Experimental: For reducing SDS‒PAGE analysis, cell or brain lysates were mixed with 4x Laemmli buffer containing 10% β-mercaptoethanol (BME) and boiled at 97 °C for 5 min. For nonreducing SDS‒PAGE analysis, cell or brain lysates were mixed with 4x Laemmli buffer without BME. For immunoblot analysis, 10 μg of each lysate was separated on a 10% SDS–PAGE gel and transferred to a PVDF membrane. The levels of total tau and phosphorylated tau were detected by anti-tau antibodies against 2B11 (IBL), Tau5 (Abcam), pSer199 (Abcam), pSer396 (Abcam), and pThr205 (Abcam). […] Band intensity was quantified using ImageJ software (NIH). All data were normalized to β-actin.

[6] = Tau-BiFC^ON by forskolin (30 μM)
[7] = Tau-BiFC^ON by tauK18^P301L (5 μg/mL)

C[C@@H]1CC(=O)NN=C1c1ccc(NN=C(C#N)C#N)cc1 [Levosimendan]
Level of disulfide-linked tau oligomers in the brain (nonreducing SDS-PAGE) (Tau^P301L-BiFC mice [1]): significantly decreased the high-molecular-weight oligomers
Fold change, RIPA-insoluble tau (IB: Tau5) (Tau^P301L-BiFC mice [1]; vehicle 1.00): 0.5 ± 0.2 fold
Fold change, RIPA-soluble tau phosphorylation at S199 (Tau^P301L-BiFC mice [1]; vehicle 1.00): 0.5 ± 0.0 fold
Fold change, RIPA-soluble tau phosphorylation at S396 (Tau^P301L-BiFC mice [1]; vehicle 1.00): 0.5 ± 0.1 fold
Fold change, RIPA-soluble total tau (IB: Tau5) (Tau^P301L-BiFC mice [1]; vehicle 1.00): decreased slightly
Tau-BiFC intensity in the hippocampus compared to vehicle-treated group (Tau^P301L-BiFC mice [2]): 0.4 ± 0.2 fold
Tau-BiFC intensity in the cortex compared to vehicle-treated group (Tau^P301L-BiFC mice [2]): 0.6 ± 01 fold
Number of NeuO-stained live neurons ([3]; 10 μM): 1650 ± 114 neurons
Neurite length ([3]; 10 μM): 346.8 ± 20.7 μm
P1: intact cell population out of total cells (Tau-BiFC cells; drug 15 μM with tauK18^P301L): 69.0%
Median BiFC fluorescence intensity of BiFC-responding cells (Tau-BiFC cells; drug 15 μM with tauK18^P301L): 249 ± 59
Inhibition of tau aggregation in vitro (ThS response) (tauK18; heparin-induced): strong anti-tau aggregation activity
EC50 (tauK18): 2600 ± 100 nM
EC50 (tau [4]; [6]): 1900 ± 100 nM
EC50 (tau [4]; [7]): 2200 ± 100 nM
Level of disulfide-linked tau oligomers compared to basal (tau [5]; 45 μM): 0.8 ± 0.2 fold
Level of tau phosphorylation at T205 compared to basal (tau [5]; 45 μM, control 1.9 ± 0.2-fold): 1.0 ± 0.1 fold
Total tau level compared to basal (tau [5]; control 2.0 ± 0.1-fold): 1.0 ± 0.2 fold

CN(C)c1ccc2c(c1)Sc1cc(N(C)C)ccc1N2.CS(=O)(=O)O.CS(=O)(=O)O [LMTM, leucomethylene blue mesylate]
Level of disulfide-linked tau oligomers in the brain (nonreducing SDS-PAGE) (Tau^P301L-BiFC mice [1]): did not increase or decrease
Fold change, RIPA-insoluble tau (IB: Tau5) (Tau^P301L-BiFC mice [1]; vehicle 1.00): 0.7 ± 0.1 fold
Fold change, RIPA-soluble tau phosphorylation at S199 (Tau^P301L-BiFC mice [1]; vehicle 1.00): 0.6 ± 0.1 fold
Fold change, RIPA-soluble tau phosphorylation at S396 (Tau^P301L-BiFC mice [1]; vehicle 1.00): 0.8 ± 0.2 fold
Tau-BiFC intensity in the hippocampus compared to vehicle-treated group (Tau^P301L-BiFC mice [2]): 0.6 ± 0.1 fold
Tau-BiFC intensity in the cortex compared to vehicle-treated group (Tau^P301L-BiFC mice [2]): 0.7 ± 0.2 fold
Number of NeuO-stained live neurons ([3]; 3 μM): 1182 ± 76 neurons
Neurite length ([3]; 3 μM): 151.1 ± 24.4 μm
Neuronal cell death in primary hippocampal neurons ([3]; higher concentrations over 10 μM (data not shown)): severe neuronal cell death
P1: intact cell population out of total cells (Tau-BiFC cells; drug 5 μM with tauK18^P301L): 14.5%
Median BiFC fluorescence intensity of BiFC-responding cells (Tau-BiFC cells; drug 5 μM with tauK18^P301L): 596 ± 57
EC50 (tauK18): 1900 ± 200 nM
EC50 (tau [4]; [6]): 2200 ± 200 nM
EC50 (tau [4]; [7]): 2700 ± 200 nM
Level of disulfide-linked tau oligomers compared to basal (tau [5]; 5 μM): 1.9 ± 0.4 fold
Level of pS199-positive monomers compared to basal (tau [5]; 5 μM, reducing gel): 0.3 ± 0.0 fold
Level of pS199-positive oligomers compared to basal (tau [5]; 5 μM, reducing gel): 0.4 ± 0.1 fold
Level of pT205-positive monomers compared to basal (tau [5]; 5 μM, reducing gel): 0.2 ± 0.2 fold
Level of pT205-positive oligomers compared to basal (tau [5]; 5 μM, reducing gel): 0.6 ± 0.2 fold
